Results on nine compounds are retold here after patent US12371454B2, “Cyclic peptide compound having Kras inhibitory action” (priority 2019, dated 2025).

Starred links: 1 amine or outer side, 2 acyl side, 3 side chain; linkers in the order of their positions; H or OH if unused. Positions of bridges follow the written chain, without caps; N, C: chain ends. Non-standard residues stand in square brackets, D forms with d. Residues, ends and D or L forms follow the SMILES beside them. *: point of attachment. hPhe(3-Cl-4-CF3) = N[C@@H](CCc1ccc(C(F)(F)F)c(Cl)c1)C(=O)O; NMeDab(N,N-(CH2CF2CH2)) = CN[C@@H](CCN1CC(F)(F)C1)C(=O)O; NMePhe(4-CF3) = CN[C@@H](Cc1ccc(C(F)(F)F)cc1)C(=O)O; NMePhe(3,4-F2) = CN[C@@H](Cc1ccc(F)c(F)c1)C(=O)O; NMePhe(4-Me) = CN[C@@H](Cc1ccc(C)cc1)C(=O)O; NMedβ3hAla = C[C@H](CC(=O)[*:2])N(C)[*:1]; NMeAla(cPent) = CN[C@@H](CC1CCCC1)C(=O)O; Pro(4,4-F2) = O=C(O)[C@@H]1CC(F)(F)CN1; NMeCha = CN[C@@H](CC1CCCCC1)C(=O)O; Azetidine(3,3-F2) = FC1(F)CN(*)C1; NMeChg = CN[C@H](C(=O)O)C1CCCCC1; NMeI = CC[C@H](C)[C@H](NC)C(=O)O; NMeD = CN[C@@H](CC(=O)O)C(=O)O; NMeL = CN[C@@H](CC(C)C)C(=O)O; NMeNva = CCC[C@H](NC)C(=O)O; NMeV = CN[C@H](C(=O)O)C(C)C; NMeA = CN[C@@H](C)C(=O)O; NMeAib = CNC(C)(C)C(=O)O; Piperidide = C1CCN(*)CC1; Pyrrolidide = C1CCN(*)C1; Ac5c = NC1(C(=O)O)CCCC1; Aze = O=C(O)[C@@H]1CCN1; Thp = NC1(C(=O)O)CCOCC1; X1 = FC1(F)CN(*)CC1(F)F; Sar = CNCC(=O)O; Propyl = CCC*

The term IC50 denotes the concentration needed to halve the response being measured.

The target of this assay is T1, Kras and SOS1 (biotin-tagged human Kras loaded with GDP, His-tagged human SOS1) (Homo sapiens, UniProt P01116, G12D).
T1 construct: made in house; host or cells: E. coli (stated for Kras only)
T1 sequence (P01116 1-188 isoform P01116-2 G12D): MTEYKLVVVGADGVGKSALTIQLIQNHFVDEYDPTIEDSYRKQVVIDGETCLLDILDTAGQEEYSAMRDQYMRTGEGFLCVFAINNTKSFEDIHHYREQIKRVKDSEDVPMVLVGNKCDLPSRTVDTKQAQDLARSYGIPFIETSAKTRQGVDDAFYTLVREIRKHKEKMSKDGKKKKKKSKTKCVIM
In words: Protein-protein interaction inhibition between Kras and SOS1 (KrasGl2D-SOS PPI) using AlphaScreen. Particulars: AlphaScreen; biotin-tagged human Kras loaded with GDP, His-tagged human SOS1; read-out: KRAS G12D-SOS PPI IC50. The format is binding. The gist of the method:
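Binding between SOS1 and Kras is detected as bead-proximity luminescence: illuminate Ni-conjugated donors (680 nm), collect 520-620 nm emission from streptavidin-conjugated acceptors; Kras carries biotin and GDP loaded after purification, SOS1 carries a His tag.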
A general note: Alpha assays give light when donor and acceptor beads are brought close together.
With `CCC[C@H]1C(=O)N[C@@H]([C@@H](C)CC)C(=O)N(C)CC(=O)N(C)CC(=O)N(C)[C@@H](CC2CCCCC2)C(=O)N(C)CC(=O)N[C@@H](CCc2ccc(C(F)(F)F)c(Cl)c2)C(=O)N2CC(F)(F)C[C@H]2C(=O)NC2(CCCC2)C(=O)N(C)[C@@H](C2CCCCC2)C(=O)N(C)[C@H](C(=O)N2CCCC2)CC(=O)N1C` [Compound 1232] ([NMeNva]I[Sar][Sar][NMeCha][Sar][hPhe(3-Cl-4-CF3)][Pro(4,4-F2)][Ac5c][NMeChg][NMeD]-Pyrrolidide; lactam N-11), the IC50 amounted to 0.47 nM. Next, `CC[C@H](C)[C@@H]1NC(=O)[C@H](CC(C)C)N(C)C(=O)C[C@@H](C)N(C)C(=O)[C@H](CC(C)C)N(C)C(=O)C2(CCOCC2)NC(=O)[C@@H]2CCCN2C(=O)[C@H](CCc2ccc(C(F)(F)F)c(Cl)c2)NC(=O)CN(C)C(=O)[C@H](CC2CCCCC2)N(C)C(=O)CN(C)C(=O)CN(C)C1=O` [Compound 742] (cyclo(I[Sar][Sar][NMeCha][Sar][hPhe(3-Cl-4-CF3)]P[Thp][NMeL][NMedβ3hAla][NMeL])): 17 nM; `CC[C@H](C)[C@@H]1NC(=O)[C@H](CC(C)C)N(C)C(=O)C[C@@H](C(=O)N2CC(F)(F)C(F)(F)C2)N(C)C(=O)[C@H](C(C)C)N(C)C(=O)C2(CCCC2)NC(=O)[C@@H]2CCCN2C(=O)[C@H](CCc2ccc(C(F)(F)F)c(Cl)c2)NC(=O)CN(C)C(=O)[C@H](CC2CCCCC2)N(C)C(=O)[C@@H]2CCN2C(=O)[C@H](C)N(C)C1=O` [Compound 1136] ([NMeL]I[NMeA][Aze][NMeCha][Sar][hPhe(3-Cl-4-CF3)]P[Ac5c][NMeV][NMeD]-X1; lactam N-11): 70 nM. In the case of `CC[C@H](C)[C@@H]1NC(=O)[C@H](C)N(C)C(=O)C[C@@H](C)N(C)C(=O)[C@H](CC(C)C)NC(=O)C(C)(C)N(C)C(=O)[C@H](CC(C)C)NC(=O)[C@H](CCc2ccc(C(F)(F)F)c(Cl)c2)NC(=O)CN(C)C(=O)[C@H](Cc2ccc(C(F)(F)F)cc2)N(C)C(=O)[C@@H]2CCN2C(=O)CN(C)C1=O` [Compound 1392] (cyclo([Aze][NMePhe(4-CF3)][Sar][hPhe(3-Cl-4-CF3)]L[NMeAib]L[NMedβ3hAla][NMeA]I[Sar])), the IC50 amounted to 28 nM.

Turning to `CC[C@H](C)[C@@H]1NC(=O)[C@H](CC2CCCC2)N(C)C(=O)C[C@@H](C(=O)N2CCCC2)N(C)C(=O)[C@H]([C@@H](C)CC)N(C)C(=O)C2(CCCC2)NC(=O)[C@@H]2CCCN2C(=O)[C@H](CCc2ccc(C(F)(F)F)c(Cl)c2)NC(=O)CN(C)C(=O)[C@H](Cc2ccc(C(F)(F)F)cc2)N(C)C(=O)[C@@H]2CCN2C(=O)[C@H](C)N(C)C1=O` [Compound 1183] ([NMeAla(cPent)]I[NMeA][Aze][NMePhe(4-CF3)][Sar][hPhe(3-Cl-4-CF3)]P[Ac5c][NMeI][NMeD]-Pyrrolidide; lactam N-11), the IC50 was 0.73 nM. Turning to `CC[C@H](C)[C@@H]1NC(=O)[C@H](CC(C)C)N(C)C(=O)C[C@@H](C(=O)N(C)C)N(C)C(=O)[C@H]([C@@H](C)CC)N(C)C(=O)C2(CCCC2)NC(=O)[C@H](Cc2ccc(F)c(F)c2)N(C)C(=O)[C@H](CCc2ccc(C(F)(F)F)c(Cl)c2)NC(=O)CN(C)C(=O)[C@H](Cc2ccc(C)cc2)N(C)C(=O)[C@@H]2CCN2C(=O)[C@H](C)N(C)C1=O` [Compound 1943] ([NMeL]I[NMeA][Aze][NMePhe(4-Me)][Sar][hPhe(3-Cl-4-CF3)][NMePhe(3,4-F2)][Ac5c][NMeI][NMeD]-NMe2; lactam N-11), the IC50 worked out at 8 nM. Next, `CC[C@H](C)[C@@H]1NC(=O)[C@H](C)N(C)C(=O)C[C@@H](C(=O)N2CCCCC2)N(C)C(=O)[C@H](C(C)C)N(C)C(=O)[C@H](CC(C)C)NC(=O)[C@H](CC(=O)N2CC(F)(F)C2)N(C)C(=O)[C@H](CCc2ccc(C(F)(F)F)c(Cl)c2)NC(=O)CN(C)C(=O)[C@H](CC2CCCCC2)N(C)C(=O)CN(C)C(=O)CN(C)C1=O` [Compound 190] ([NMeA]I[Sar][Sar][NMeCha][Sar][hPhe(3-Cl-4-CF3)][NMeD](Azetidine(3,3-F2))L[NMeV][NMeD]-Piperidide; lactam N-11): 150 nM; `CCCOC[C@@H]1NC(=O)[C@H](CCN2CC(F)(F)C2)N(C)C(=O)[C@H](CCc2ccc(C(F)(F)F)c(Cl)c2)NC(=O)CN(C)C(=O)[C@H](CC2CCCCC2)N(C)C(=O)CN(C)C(=O)CN(C)C(=O)[C@H]([C@@H](C)CC)NC(=O)[C@H](C)N(C)C(=O)C[C@@H](C(=O)N2CCCCC2)N(C)C(=O)[C@H](C(C)C)N(C)C1=O` [Compound 154] ([NMeA]I[Sar][Sar][NMeCha][Sar][hPhe(3-Cl-4-CF3)][NMeDab(N,N-(CH2CF2CH2))]S(Propyl)[NMeV][NMeD]-Piperidide; lactam N-11): 4.8 nM. In the case of `CC[C@H](C)[C@@H]1NC(=O)[C@H](CC(C)C)N(C)C(=O)C[C@@H](C)N(C)C(=O)[C@H](CC(C)C)NC(=O)C(C)(C)N(C)C(=O)[C@H](CC(C)C)NC(=O)[C@H](CCc2ccc(C(F)(F)F)c(Cl)c2)NC(=O)CN(C)C(=O)[C@H](Cc2ccc(C)cc2)N(C)C(=O)[C@@H]2CCN2C(=O)CN(C)C1=O` [Compound 1386] (cyclo([Aze][NMePhe(4-Me)][Sar][hPhe(3-Cl-4-CF3)]L[NMeAib]L[NMedβ3hAla][NMeL]I[Sar])) it was 10 nM.
